Earlier results in patent publication US4867987A, “Pharmaceutical product for the sustained release of ibuprofen” (priority 1986, dated 1989).

In the case of `CC(C)Cc1ccc(C(C)C(=O)O)cc1` (stereo not shown) [ibuprofen, 2-(4-isobutylphenyl)propionic acid], the “complete elimination of ibuprofen and its metabolites after the last administration” value is listed as ≤ 24 h.
